According to PubChem BioAssay (NCI):
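Cells were grown in 96-well plates and exposed to each compound for 48 hours at five concentrations; endpoints were interpolated linearly between bracketing concentrations, or set to the highest concentration if not reached. TGI: total growth inhibition.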

How the values were obtained:
Assay in all cases: growth of human tumour cells (NCI), 48 h
MDA-MB-435 = tested on: MDA-MB-435
UO-31 renal = tested on: UO-31 renal
SF-268 CNS = tested on: SF-268 CNS
MCF7 breast = tested on: MCF7 breast
TK-10 renal = tested on: TK-10 renal
A498 renal = tested on: A498 renal
U251 CNS = tested on: U251 CNS
IGROV1 ovarian = tested on: IGROV1 ovarian
SK-MEL-28 melanoma = tested on: SK-MEL-28 melanoma
SK-MEL-2 melanoma = tested on: SK-MEL-2 melanoma
OVCAR-5 ovarian = tested on: OVCAR-5 ovarian
SR leukemia = tested on: SR leukemia
RXF 393 renal = tested on: RXF 393 renal
HOP-92 NSCLC = tested on: HOP-92 NSCLC
SK-MEL-5 melanoma = tested on: SK-MEL-5 melanoma
KM12 colon = tested on: KM12 colon
HCT-15 colon = tested on: HCT-15 colon
OVCAR-8 ovarian = tested on: OVCAR-8 ovarian
NCI-H226 lung = tested on: NCI-H226 lung
HOP-62 NSCLC = tested on: HOP-62 NSCLC

Structure (SMILES)	TGI (MDA-MB-435) [µM]	TGI (UO-31 renal) [µM]	TGI (SF-268 CNS) [µM]	TGI (MCF7 breast) [µM]	TGI (TK-10 renal) [µM]	TGI (A498 renal) [µM]	TGI (U251 CNS) [µM]	TGI (IGROV1 ovarian) [µM]	TGI (SK-MEL-28 melanoma) [µM]	TGI (SK-MEL-2 melanoma) [µM]	TGI (OVCAR-5 ovarian) [µM]	TGI (SR leukemia) [µM]	TGI (RXF 393 renal) [µM]	TGI (HOP-92 NSCLC) [µM]	TGI (SK-MEL-5 melanoma) [µM]	TGI (KM12 colon) [µM]	TGI (HCT-15 colon) [µM]	TGI (OVCAR-8 ovarian) [µM]	TGI (NCI-H226 lung) [µM]	TGI (HOP-62 NSCLC) [µM]
Clc1ccc(CCNC2(c3cc4ccccc4s3)CCCCC2)cc1Cl	> 100	36.7	> 100	33.5	65.9	39.9	65.4	> 100	87.2	36.8	68.1	32.5	36.7	29.8	31.7	61.8	37.7	> 100	40.7	84.3
N[C@H]1c2c(Br)sc(Br)c2C(=O)[C@H]1O	36.7	47.2	> 68.1	34.8	> 100	> 100	29.7	32.8	26.7	69.9	60.7	5.79	16.2	38.9	41.8	> 100	24.3	43.7	62	36.5
Cc1ccc(S(=O)(=O)N2CCC[C@@H]2C(=O)O[C@@H]2CCC3CC=CC32)cc1 (some centres not stated)	> 100	41.5	75	> 100	> 100	81.1	> 100	> 100	> 100	–	> 100	61	66.5	44	29.2	> 100	> 100	> 100	68.3	97.2
CNC(=O)N(CCC#N)CCN(C(=O)NC)c1ccccc1	> 100	> 100	> 100	> 100	> 100	> 100	> 100	> 100	> 100	> 100	> 100	> 100	> 100	> 100	> 100	> 100	> 100	> 100	> 100	> 100
COc1ccc(-n2c(SC(CN3CCOCC3)CN3CCCC3=O)nc3ccccc3c2=O)cc1 (configuration not stated)	> 100	> 100	> 100	> 100	> 100	> 100	> 100	> 100	> 100	> 100	> 100	> 100	> 100	> 100	> 100	> 100	> 100	> 100	> 100	–
CN(C)Cc1c(O)ccc2c1c1c(n2C)C(=O)c2ccccc2C1=O	21.1	37.5	> 100	> 100	50.7	14.7	> 100	85.2	20	24.8	74.4	> 100	81.5	> 100	23.1	23.9	> 100	> 100	38.1	> 100
COc1ccc2c(c1)CC[C@@H]1C2CC[C@]2(C)C(=O)N(CCN(C)C)C(=O)CC12 (some centres not stated)	> 100	> 100	> 100	> 100	> 100	> 100	> 100	> 100	> 100	–	> 100	> 100	> 100	> 100	> 100	> 100	–	> 100	> 100	> 100
CCC(=O)Nc1cccc(N=Cc2ccc(OC(=O)/C=C\c3ccccc3)cc2)c1	> 75	> 75	> 75	> 75	> 75	> 75	–	> 75	> 75	> 75	> 75	> 75	48.1	> 75	> 75	> 75	> 75	> 75	> 75	> 75
Cc1c(C(=O)O)n2c(=S)[nH]nc2c2ccccc12	> 100	> 100	> 100	> 100	> 100	> 100	> 100	> 100	> 100	> 100	> 100	> 100	> 100	> 100	> 100	> 100	> 100	> 100	> 100	> 100
CC(C)C(Nc1ncnc2nc[nH]c12)C(=O)O (configuration not stated)	> 100	> 100	> 100	> 100	> 100	> 100	> 100	> 100	> 100	> 100	> 100	> 100	> 100	> 100	> 100	> 100	> 100	> 100	> 100	> 100
CSc1cc(Cl)c(C)cc1S(=O)(=O)NC(=O)NNc1ccc(F)cc1	> 100	–	> 100	> 100	–	> 100	> 100	> 100	> 100	> 100	> 100	> 100	> 100	–	> 100	> 100	> 100	> 100	> 100	> 100
CCn1c2nc(=O)n(CCCCCCCCSC(c3ccccc3)(c3ccccc3)c3ccccc3)c(=O)c-2nc2ccccc21	> 100	> 100	> 100	> 100	> 100	> 100	> 100	> 100	> 100	> 100	> 100	> 100	> 100	53.1	22.9	> 100	> 100	> 100	> 100	> 100
O=C1c2cc(I)ccc2N2CCN=C2N1Cc1ccccc1	> 100	> 100	> 100	> 100	> 100	94.1	> 100	> 100	> 100	> 100	> 100	> 100	49.4	80.1	> 100	> 100	> 100	> 100	> 100	> 100
Cc1cc2c(c(C(=O)NCC(=O)N[C@@H](C)C(=O)OCc3ccccc3)c1)Oc1c(cc(C)cc1C(=O)NCC(=O)N[C@@H](C)C(=O)OCc1ccccc1)S2	> 100	> 100	> 100	> 100	–	> 100	> 100	> 100	–	> 100	> 100	> 100	85.3	–	> 100	> 100	> 100	> 100	> 100	> 100
c1coc(-c2nccc3c2[nH]c2ccccc23)c1	> 100	–	> 100	> 100	> 100	> 100	> 100	> 100	> 100	> 100	> 100	> 100	> 100	> 100	> 100	> 100	> 100	> 100	95.8	> 100
CSc1ncc2c(n1)-c1ccccc1OC2N1CCOCC1 (configuration not stated)	> 100	> 100	> 100	> 100	> 100	56.7	> 100	> 100	–	> 100	> 100	> 100	> 100	> 100	> 100	> 100	> 100	> 100	> 100	–
CC(C)=CC1C(C(=O)Oc2ccccc2C(C)C)C1(C)C (configuration not stated)	> 100	34.6	> 100	38	96	37.1	33.6	> 100	> 100	33.1	48.8	61.7	33.5	> 100	33.9	38.9	53.1	> 100	–	85.5
Cc1ncc([N+](=O)[O-])n1CC[N+](C)([O-])CCCCn1ccnc1[N+](=O)[O-] (configuration not stated)	> 100	> 100	> 100	> 100	> 100	> 100	> 100	> 100	> 100	> 100	> 100	> 100	> 100	–	> 100	> 100	> 100	> 100	> 100	> 100
CC(=O)O[C@H]1C(=O)[C@@]2(C)[C@H]([C@H](OC(=O)c3ccccc3)[C@]3(O)C[C@H](OC(=O)[C@H](O)[C@@H](NC(=O)c4ccccc4)c4ccc5ccccc5c4)C(C)=C1C3(C)C)[C@]1(OC(C)=O)CO[C@@H]1C[C@@H]2O	0.0238	> 50	> 50	0.879	18.6	6.96	1.46	> 42.3	> 23.1	0.173	2	1.85	1.77	> 14	12.9	–	8.4	25.8	–	0.362
